Laboratory results from patent publication US7294491B2 (Ajinomoto Co., Inc., priority 2003, dated 2007).

What was measured:
[1] = precipitation concentration (super solubility) of L-glutamic acid in culture medium at pH 4.5 with added L-lysine; format: physicochemical, Pantoea ananatis AJ13601; settings: pH 4.5 culture
Description: Cells of the Pantoea ananatis AJ13601 strain cultured at 30° C. for 14 hours in the LBG agar medium (10 g/L of trypton, 5 g/L of yeast extract, 10 g/L of NaCl, 15 g/L of agar) containing 25 mg/L of tetracycline hydrochloride and 25 mg/L of chloramphenicol were scraped from one plate and inoculated into 300 ml of seed culture medium having the following composition and contained in a 1 L-volume jar fermenter, and seed culture was performed at 34° C. and pH 6.0.
The pH was adjusted to 6.0 by adding ammonia gas during the culture. The seed culture was finished by observing depletion of the saccharide in the medium as an index, and the seed culture medium of 20% volume of the main culture medium was inoculated into 300 ml of the main culture medium contained in a 1 L-volume jar fermenter to perform the main culture under the conditions of 34° C. and pH 4.5. The composition of the main culture medium is shown below.
The pH was adjusted to 4.5 by adding ammonia gas during the culture. After the saccharide in the medium was consumed and depleted, 700 g/L of glucose aqueous solution was continuously added (6 ml/hr).
The liquid supernatant of the culture medium was obtained by centrifuging the culture medium at 10000×G for 1 minute. The polymorphism of crystals which precipitated in the culture medium was determined by microscopic observation.

[2] = crystal form of L-glutamic acid crystals precipitated in a cooling-crystallization system with added amino acid; format: physicochemical; settings: FIG. 7

SMILES	concentration of added L-lysine above which α-form crystals form naturally without seed crystals [1]	control of precipitated L-glutamic acid crystal form by added amino acid ([2]; pH 4.5, super saturation 2, 34° C.)	control of precipitated L-glutamic acid crystal form by added amino acid ([2]; pH 3.2, super saturation 2, 34° C.)	control of precipitated L-glutamic acid crystal form by added amino acid ([2]; pH 4.5 or more, super saturation 2, 34° C.)
NCCCC[C@H](N)C(=O)O [L-lysine]	exceeds 900 mg/L	could be controlled to the α-form	–	–
N[C@@H](Cc1ccccc1)C(=O)O [L-phenylalanine]	–	–	showed the same effect	such an effect could not be observed
